Reference: US20030040531A1, “Remedies for reperfusion injury containing integrin alphanubeta 3 antagonist” (priority 2000, published 2003)

Experiments:
[1] = tested on: hamster vascular smooth muscle cells; assay: adhesion of hamster vascular smooth muscle cells to rat vitronectin; format: cell-based; settings: Mesocricetus auratus, read-out: concentration (IC50) necessary for inhibition of adhesion to vitronectin
Method: The adhesion of vascular smooth muscle cells to immobilized human vitronectin was measured in accordance with the method of Liaw et al. (L. Liaw et al., Circ. Res., 74, 214 (1994)). A Dulbecco's phosphate buffer (Dulbecco's PBS(−)) solution of human serum-derived vitronectin adjusted to a concentration of 4 μg/ml was first added to wells (50 μl/well) of a microplate (Maxisorp), and a reaction for immobilization was allowed to proceed at 4° C. overnight. After washing twice with 150 μl of Dulbecco's PBS (−), Dulbecco's PBS (−) containing 10 mg/ml of bovine serum albumin was added, followed by blocking at 37° C. for one hr. The microplate was then washed twice with 150 μl of Dulbecco's PBS (−) to prepare an assay plate.
Next, 50 μl of a Dulbecco's modified Eagle's basal medium containing 20 mg/ml of bovine serum albumin with a medicament added thereto was added to the wells of the human vitronectin-coated assay microplate, followed by pre-cultivation under 5% carbon dioxide at 37° C. for 10 min. […] The absorbance of the microplate thus obtained was measured at 595 nm. […] The inhibition was calculated by the following equation. IC50 was determined from a primary regression line of the logarithm of each concentration of the test compound and the logarithm of (100−inhibition)/inhibition. […]

platelet aggregation [2] = assay: inhibition of platelet aggregation, human; format: cell-based; settings: read-out: concentration (IC50) necessary for inhibition of platelet aggregation
platelet aggregation [3] = assay: inhibition of platelet aggregation, rat; format: cell-based; settings: read-out: concentration (IC50) necessary for inhibition of platelet aggregation
platelet aggregation [4] = assay: inhibition of platelet aggregation, hamster; format: cell-based; settings: Mesocricetus auratus, read-out: concentration (IC50) necessary for inhibition of platelet aggregation
Method: The platelets aggregation was measured by the Born's method (G. V. R. Born, Nature 194, 927 (1962)). Blood was collected through an injector containing a 3.8% sodium citrate solution from the aorta abdominalis (final concentration: 0.38%). Centrifugation was carried out at 900 rpm (about 80× g) for 10 min to collect platelet-rich plasma, and centrifugation was further carried out at 3,000 rpm (about 880× g) for 10 min to collect platelet-poor plasma, followed by the measurement of aggregation with an aggregometer. In this case, ADP (final concentration: 5 μM) was used as an aggregation inducer.

platelet aggregation [5] = assay: inhibition of platelet aggregation, dog; format: cell-based; settings: Canis lupus familiaris, read-out: concentration (IC50) necessary for inhibition of platelet aggregation
[6] = tested on: hamster acute ischemia-reperfusion model; assay: hamster acute ischemia-reperfusion model; format: in vivo; settings: for reduction of myocardial infarct size (IS/AR): sodium salt mixed with arginine; for myocardial infarct size (IS/AR): average±SE, n=5, solvent administration group 49.3±7.1%
Method: A polyethylene tube was inserted into the carotid artery and the survical vein of Syrian male hamsters (10 to 13 weeks old) under pentobarbital anesthesia (60 mg/kg, i.p.). An electrocardiogram (I or II leading) was measured through a bioelectricity amplifier by leading from electrodes which had pierced the limbs. A polyethylene tube was inserted into the trachea, and artificial respiration was carried out with an artificial respirator (amount of ventilation: 10 ml/kg/stroke, number of times of ventilation: 70 strokes/min). The blood pressure was measured through a blood pressure amplifier, and the heart rate was measured with a heart rate unit using blood pressure as a trigger. The animals underwent thoracotomy, and the coronary, together with the myocardium, was then occluded using a suture with a needle. Ischemia for 90 min was followed by reperfusion for 2 hr to quantitatively determine myocardial infarct size.
A sodium salt of the compound represented by formula (IV) was mixed with a 2-fold equivalent of arginine, and the mixture was dissolved in a 5% glucose solution. The dose volume was 2 ml/kg+2 ml/kg/h (bolus +infusion). For a solvent administration group, a 0.64 mg/ml arginine/5% glucose solution was used. The medicament was continuously administered through an infusion pump for the period starting with one min before ischemia and ending with the completion of the experiment. After reperfusion for 2 hr, the animals were slaughtered by intraveneous injection of 1,000 U/kg of heparin and an excessive amount of pentobarbital, and the heart was then removed. After perfusion with a Ringer solution, blood was washed away from the heart, and the coronary artery was re-occluded. After the reocclusion, 0.4 ml of 0.1% Evans blue was injected through the aorta. The heart was rinsed with physiological saline and was then cut into about 1 mm slices. For each slice, the left ventricle (LV) was separated, and the weight of the left ventricle and the weight of the area-at-risk (AR) were measured. The area-at-risk was stained with a 50 mM Tris.HCl (pH 7.4, 37° C.) buffer containing 1.5% triphenyltetrazolium chloride heated at 37° C., and the weight of the infarct area (IS; infarct size) was measured. The measurement of the weight was carried out under a blind.

`O=C(NCC(NS(=O)(=O)c1ccccc1)C(=O)O)c1ccc(N2CCC(NC3=NCCCN3)CC2)c(F)c1` (stereo in doubt) [formula (IV), (2S)-Benzenesulfonylamino-3-[3-fluoro-4-{4-(1,4,5,6-tetrahydropyrimidin-2-ylamino)-piperidin-1-yl}benzoylamino]propionic Acid] was tested, and the IC50 [1] was 730 nM, the IC50 (platelet aggregation [2]) was 55 nM and the IC50 (platelet aggregation [3]) was > 100000 nM. For the same molecule, the IC50 (platelet aggregation [4]) was 1900 nM, the IC50 (platelet aggregation [5]) was 45 nM and the “reduction of myocardial infarct size (IS/AR)” value ([6]; group H 1.0 mg/kg+1.0 mg/kg/h (bolus+infusion), significant difference) was 49.3%. The “myocardial infarct size (IS/AR)” value ([6]; group H 1.0 mg/kg+1.0 mg/kg/h) was 25.0±2.8%, the “reduction of myocardial infarct size (IS/AR)” value ([6]; group L 0.33 mg/kg+0.33 mg/kg/h (bolus+infusion)) was 30.9% and the “myocardial infarct size (IS/AR)” value ([6]; group L 0.33 mg/kg+0.33 mg/kg/h) was 34.0±5.0%.
